IC50 data for two compounds are collected here from ChEMBL document CHEMBL5233240, “hERG toxicity assessment: Useful guidelines for drug design” (Eur J Med Chem, 2020).

The target in this assay is Voltage-gated inwardly rectifying potassium channel KCNH2 (Homo sapiens, UniProt Q12809). Briefly: Inhibition of human ERG. Format: toxicity.
Voltage-gated inwardly rectifying potassium channel KCNH2, sequence (Q12809 whole entry): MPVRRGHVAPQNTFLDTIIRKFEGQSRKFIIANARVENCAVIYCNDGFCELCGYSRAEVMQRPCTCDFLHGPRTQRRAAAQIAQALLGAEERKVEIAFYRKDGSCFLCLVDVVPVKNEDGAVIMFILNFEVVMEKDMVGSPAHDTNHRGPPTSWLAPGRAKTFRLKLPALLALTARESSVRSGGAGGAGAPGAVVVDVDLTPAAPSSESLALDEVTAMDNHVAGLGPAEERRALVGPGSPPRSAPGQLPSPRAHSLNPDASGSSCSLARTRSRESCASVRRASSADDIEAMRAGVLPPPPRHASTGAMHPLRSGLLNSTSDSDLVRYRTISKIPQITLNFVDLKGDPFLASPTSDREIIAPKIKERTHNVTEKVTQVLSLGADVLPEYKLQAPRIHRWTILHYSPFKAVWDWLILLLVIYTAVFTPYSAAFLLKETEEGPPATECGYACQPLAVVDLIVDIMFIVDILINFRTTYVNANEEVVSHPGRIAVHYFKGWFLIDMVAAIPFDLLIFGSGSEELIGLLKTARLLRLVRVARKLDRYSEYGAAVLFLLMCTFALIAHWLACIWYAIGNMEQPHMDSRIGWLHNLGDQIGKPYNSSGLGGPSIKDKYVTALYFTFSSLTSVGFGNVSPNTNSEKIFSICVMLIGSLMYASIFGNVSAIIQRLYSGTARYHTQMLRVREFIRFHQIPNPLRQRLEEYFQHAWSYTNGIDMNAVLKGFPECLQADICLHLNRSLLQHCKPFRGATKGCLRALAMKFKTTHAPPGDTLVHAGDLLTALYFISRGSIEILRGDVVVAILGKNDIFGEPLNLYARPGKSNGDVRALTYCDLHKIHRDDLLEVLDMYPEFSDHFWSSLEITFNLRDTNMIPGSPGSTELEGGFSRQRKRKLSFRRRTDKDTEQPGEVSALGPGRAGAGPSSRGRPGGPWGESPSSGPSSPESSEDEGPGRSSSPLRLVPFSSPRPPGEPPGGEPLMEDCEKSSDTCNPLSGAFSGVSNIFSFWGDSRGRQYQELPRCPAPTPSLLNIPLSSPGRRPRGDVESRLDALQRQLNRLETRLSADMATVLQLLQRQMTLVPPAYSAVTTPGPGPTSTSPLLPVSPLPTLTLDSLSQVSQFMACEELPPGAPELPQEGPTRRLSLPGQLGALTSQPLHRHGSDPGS

`N#Cc1ccc(Cn2cncc2CC[C@H]2CCN(Cc3cccc(Cl)c3)C2=O)cc1`: the IC50 – broadly, the point on the concentration scale where inhibition reaches its midpoint – worked out at 0.44 µM.
As for `N#Cc1ccc2cc1Oc1ccc3c(c1)[C@@H](CCC3)N1CC[C@H](C1)NCc1cncn1-2`, the figure is 7 µM.
